From patent publication US20090069302A1 (SMITHKLINE BEECHAM CORPORATION, priority 2006, published 2009)

Key:
AXOR109 = biological target: T1, AXOR109 (Homo sapiens, UniProt Q8TDU6); assay: Human AXOR109/Melanophore Assay; assay type: cell-based; details: melanophore assay
T1 construct: expressed in transfected cells; host or cells: melanophore cells, transfected by electroporation
T1 sequence (Q8TDU6 1-330): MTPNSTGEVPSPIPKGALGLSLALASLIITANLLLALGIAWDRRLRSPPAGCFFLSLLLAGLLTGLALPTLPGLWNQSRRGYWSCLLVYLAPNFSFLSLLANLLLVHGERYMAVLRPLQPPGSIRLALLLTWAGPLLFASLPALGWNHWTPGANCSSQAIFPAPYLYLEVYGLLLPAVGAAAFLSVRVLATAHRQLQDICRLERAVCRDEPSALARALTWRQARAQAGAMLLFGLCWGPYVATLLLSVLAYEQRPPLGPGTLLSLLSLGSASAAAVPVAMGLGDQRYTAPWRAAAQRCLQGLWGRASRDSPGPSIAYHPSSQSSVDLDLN
In short: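 Readout is melanosome dispersion in melanophores electroporated with human AXOR109, in buffer containing 10 nM melatonin and 1% DMSO. Transmittance was read before and after 1 h compound exposure across 11-point 3-fold dilutions. Response was normalized to 200 nM alpha-MSH as system max, and pEC50 was obtained from a Hill fit.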

CD rats = assay: Effect on GLP-1 secretion in CD rats, intracolonic injection; assay type: in vivo, rat; details: anesthetized CD rats, 2.5 mg intracolonic
Procedure: Twelve ten week old (six per group) anesthetized normal CD rats were dosed with vehicle (0.5% HPMC/0.1% Tween80) or 2.5 mg Example 9 through intracolonic injection at 0 time point after a control blood sample was collected. Blood samples were collected at 5, 15, 30 and 60 minutes after dosing. Plasma active, and […] total GLP-1 were measured (ELISA kits, LINCO), and values were converted to % of controls. […] The results are listed in Tables 2a and 2b, and graphically represented in FIGS. 1a and 1b, respectively.

GK rats [1] = assay: Sixteen day chronic intracolonic dosing study in GK rats (insulin, glucose, glucagon); assay type: in vivo, rat; details: 0.3 mg/kg QD intracolonic
Description: (§1) The results are listed in Tables 4a and 4b, and graphically represented in FIGS. 3a and 3b, respectively.

GK rats [2] = assay: Glucose tolerance test in the chronic study in GK rats; assay type: in vivo, rat; design: glucose in glucose tolerance test: unit not given here; details: for glucose in glucose tolerance test: 0.3 mg/kg
Procedure: as §1
In the same chronic study in GK rats as in Tables 4a and 4b, an intravenous glucose tolerance test was performed on days 1, 3, 9, and 16.

GK rats [3] = assay: as above; assay type: in vivo, rat; details: treated versus vehicle group, in words
[4] = 0 min (control sample before dosing)

In the case of COc1ccc(S(=O)(=O)N2CCCN(S(=O)(=O)c3ccc(OC)c(OC)c3)CC2)cc1OC [Example 9, 1,4-bis{[3,4-bis(methyloxy)phenyl]sulfonyl}hexahydro-1H-1,4-diazepine], the Emax (AXOR109; 1 h, normalized to alpha-MSH system max) is reported as 51 to 75%, the EC50 (AXOR109; AXOR109 transfected melanophores) is reported as 126 to 1000 nM and the “Portal Vein Active GLP-1 Levels (% of Controls)” value (CD rats; [4]) is reported as 100.00 % of Controls. For the same molecule, the “Portal Vein Total GLP-1 Levels (% of Controls)” value (CD rats; [4]) was 100.00 % of Controls, the “Portal Vein Active GLP-1 Levels (% of Controls)” value (CD rats; 5 min) was 175.27 % of Controls and the “Portal Vein Total GLP-1 Levels (% of Controls)” value (CD rats; 5 min) was 182.84 % of Controls. For the same molecule, the “Portal Vein Active GLP-1 Levels (% of Controls)” value (CD rats; 15 min) was 352.50 % of Controls, the “Portal Vein Total GLP-1 Levels (% of Controls)” value (CD rats; 15 min) was 308.38 % of Controls and the “Portal Vein Active GLP-1 Levels (% of Controls)” value (CD rats; 30 min) was 298.49 % of Controls. For the same molecule, the “Portal Vein Total GLP-1 Levels (% of Controls)” value (CD rats; 30 min) was 263.34 % of Controls, the “Portal Vein Active GLP-1 Levels (% of Controls)” value (CD rats; 60 min) was 286.95 % of Controls and the “Portal Vein Total GLP-1 Levels (% of Controls)” value (CD rats; 60 min) was 246.00 % of Controls. For the same molecule, the “active and total GLP-1 level compared to controls” value (CD rats; in words) was “higher level of active and total GLP-1”, the “glucagon (pM)” value (GK rats [1]; day 3) was 21.31 pM and the “glucose” value (GK rats [1]; day 3) was 144.20 mg/dL. For the same molecule, the “insulin (pM)” value (GK rats [1]; day 3) was 223.24 pM, the insulin levels (GK rats [1]; day 3 and day 9, in words) was “normal insulin levels” and the “glucagon (pM)” value (GK rats [1]; day 9) was 21.67 pM. The “glucose” value (GK rats [1]; day 9) was 131.00 mg/dL, the “insulin (pM)” value (GK rats [1]; day 9) was 240.29 pM and the “glucagon (pM)” value (GK rats [1]; day 16) was 24.67 pM. For the same molecule, the “glucose” value (GK rats [1]; day 16) was 169.00 mg/dL, the “insulin (pM)” value (GK rats [1]; day 16) was 108.09 pM and the glucagon levels (GK rats [1]; day 16, in words) was “no increase in glucagons”. The “glucagon (pM)” value (GK rats [1]; pre dose) was 31.28 pM, the “glucose” value (GK rats [1]; pre dose) was 107.17 mg/dL and the “insulin (pM)” value (GK rats [1]; pre dose) was 269.67 pM. The “development of hyperglycemia compared with vehicle” value (GK rats [1]; sixteen days, in words) was “no hyperglycemia had developed”, the “glucose in glucose tolerance test” value (GK rats [2]; day 1, 0.00 min) was 103.67 and the “glucose in glucose tolerance test” value (GK rats [2]; day 1, 5.00 min) was 257.17. For the same molecule, the “glucose in glucose tolerance test” value (GK rats [2]; day 1, 15.00 min) was 195.67, the “glucose in glucose tolerance test” value (GK rats [2]; day 1, 30.00 min) was 149.50 and the “glucose in glucose tolerance test” value (GK rats [2]; day 1, 60.00 min) was 126.83. The “glucose in glucose tolerance test” value (GK rats [2]; day 1, 90.00 min) was 158.00, the “glucose in glucose tolerance test” value (GK rats [2]; day 1, 120.00 min) was 173.50 and the “glucose in glucose tolerance test” value (GK rats [2]; day 1, −20.00 min) was 107.17. The “glucose in glucose tolerance test” value (GK rats [2]; day 3, 0.00 min) was 123.00, the “glucose in glucose tolerance test” value (GK rats [2]; day 3, 5.00 min) was 307.40 and the “glucose in glucose tolerance test” value (GK rats [2]; day 3, 15.00 min) was 254.80. For the same molecule, the “glucose in glucose tolerance test” value (GK rats [2]; day 3, 30.00 min) was 182.20, the “glucose in glucose tolerance test” value (GK rats [2]; day 3, 60.00 min) was 143.60 and the “glucose in glucose tolerance test” value (GK rats [2]; day 3, 90.00 min) was 140.60. For the same molecule, the “glucose in glucose tolerance test” value (GK rats [2]; day 3, 120.00 min) was 137.60, the “glucose in glucose tolerance test” value (GK rats [2]; day 3, −20.00 min) was 144.20 and the “glucose in glucose tolerance test” value (GK rats [2]; day 9, 0.00 min) was 129.00. For the same molecule, the “glucose in glucose tolerance test” value (GK rats [2]; day 9, 5.00 min) was 278.80, the “glucose in glucose tolerance test” value (GK rats [2]; day 9, 15.00 min) was 252.40 and the “glucose in glucose tolerance test” value (GK rats [2]; day 9, 30.00 min) was 154.80. The “glucose in glucose tolerance test” value (GK rats [2]; day 9, 60.00 min) was 116.20, the “glucose in glucose tolerance test” value (GK rats [2]; day 9, 90.00 min) was 115.00 and the “glucose in glucose tolerance test” value (GK rats [2]; day 9, 120.00 min) was 88.60. For the same molecule, the “glucose in glucose tolerance test” value (GK rats [2]; day 9, −20.00 min) was 131.00, the “glucose in glucose tolerance test” value (GK rats [2]; day 16, 0.00 min) was 174.20 and the “glucose in glucose tolerance test” value (GK rats [2]; day 16, 5.00 min) was 275.20. The “glucose in glucose tolerance test” value (GK rats [2]; day 16, 15.00 min) was 245.80, the “glucose in glucose tolerance test” value (GK rats [2]; day 16, 30.00 min) was 238.80 and the “glucose in glucose tolerance test” value (GK rats [2]; day 16, 60.00 min) was 215.40. The “glucose in glucose tolerance test” value (GK rats [2]; day 16, 90.00 min) was 217.60, the “glucose in glucose tolerance test” value (GK rats [2]; day 16, 120.00 min) was 212.60 and the “glucose in glucose tolerance test” value (GK rats [2]; day 16, −20.00 min) was 169.00. For the same molecule, the “development of hyperglycemia on day 16” value (GK rats [2]; chronic study, day 16, in words) was “hyperglycemia had developed in rats receiving vehicle, but not in the rats treated with Example 9” and the “Glucose excretion during the oral glucose tolerance test” value (GK rats [3]) was “less in the treated group as compared to the vehicle group”.
